Columns and labels:
Th17 cells = test: IL-17A production (ELISA) during in vitro Th17 differentiation; format: cell-based, human; conditions: PFK-158 every two days of culture, FIG. 17E,F
Excerpt: (§1) The differentiation of Th17 cells from naïve CD4^+ T cells was induced and, for γδT17 cells, naïve Vγ9Vδ2 T cells were isolated from healthy donors and polarized into IL-17 producing γ6T cells using established methods.
(§2) Human naïve CD4^+ T cells differentiated into Th17 cells or sorted human naïve Vγ9Vδ2 T cells were polarized in vitro and analyzed for PFKFB2-4 mRNA (FIG. 17 A,B), F26BP, and PFKFB3 protein (FIG. 17 C,D). The CD4^+ T cells (during in vitro Th17 differentiation) and Vγ9Vδ2 T cells (during in vitro polarization) were exposed to vehicle (DMSO) or the indicated concentrations of PFK-158 (every two days of the culture period) and IL-17A production was quantified by ELISA (FIG. 17 E,F).

cancer patients = test: Phase 1 trial of PFK-158 in cancer patients (clinical response, tolerability); format: in vivo
Description: A phase 1 trial of PFK-158 in cancer patients is currently being conducted at Georgetown University, UT Southwestern, Md. Anderson Cancer Center and the U. of Louisville (clinicaltrials.gov# NCT02044861). […] Institutional investigators have observed partial tumor regressions in 3 patients with ocular melanoma, ovarian cancer and renal cell carcinoma and de novo stabilization of tumor burden in 2 patients (breast and adenoid cystic carcinoma). A person with ocular melanoma was administered 24 mg/M^2 in cohort 1 of the phase 1 trial of PFK-158—a dose that is markedly lower than that required to cause the known cytotoxic effects of PFK-158. […] Over the course of six months of therapy, several of the patient's hepatic metastases first became necrotic after 2 monthly cycles (hypoattenuation appears dark on CT imaging) and then shrunk after 6 cycles (FIG. 18).
The patient was administered PFK-158 for 4 cycles and their bony metastases were deemed to be stable (FIG. 19, left two panels) and several liver metastases became necrotic (FIG. 19, right panel).
(§3) 18 cancer patients completed 2 cycles of 24-470 mg/M^2 PFK-158; 5 of these patients experienced stabilization of their disease (i.e. no growth and no new tumors) and tumor regressions have been observed in multiple patients. For example, a person with renal cell carcinoma who had progressed after all available FDA-approved agents including mTOR and VEGFR inhibitors and IL-2 entered the study (470 mg/M^2). They experienced stabilization of disease by immune-related response criteria (26% reduction in maximum diameters) with multiple tumors regressing and has entered their seventh month of treatment. Of these 18 patients, immunophenotyping by flow cytometry on 4 patients' PBMCs has been carried out. These four patients were administered PFK-158 for 2 weeks and PBMCs were collected at baseline, day 15, and then analyzed by flow cytometry for CD3+CD4+il-17+ cells and CD8+CD137+ T cells.

γδT17 cells = test: IL-17A production (ELISA) during in vitro polarization of Vγ9Vδ2 T cells; format: cell-based, human; conditions: PFK-158 every two days of culture, FIG. 17E,F
Excerpt: as §1, §2

[1] = tested on: peripheral blood mononuclear cells; test: Flow cytometry of peripheral blood mononuclear cells of a breast cancer patient receiving PFK-158; format: in vivo, human; conditions: after 1 week, persisted through treatment
Description: An unexpected stability of tumors in multiple patients receiving PFK-158 at doses that were considered to be sub-therapeutic has been observed. […] This breast adenocarcinoma patient received 96 mg/M^2 of PFK-158 every other day for three weeks followed by a one week rest—this cycle was repeated for a total of four cycles. Peripheral blood mononuclear cells were collected on days 1, 8, 15, 22 and 62 and flow cytometry was conducted for a multitude of immunosuppressive cells and activated T cells. […] These cells are the main CD8+ T cells that can infiltrate tumors and differentiate into cytolytic T cells which kill tumor cells. […]
Given the decrease in Th17 cells and increase in effector CD8^+ T cells observed after PFK-158 administration, the ability of PFK-158 to cause an increase in terminally-differentiated CD8^+ effector cells was examined. CD8^+CD57^+CD27^− TCD28^− The breast cancer patient described in Example 7 was administered PFK-158 for 1 cycle and PBMCs were collected at baseline, day 8, 15, 22, and then analyzed for CD8^+CD57^+CD27^− TCD28^− T cells and PD-1. […]
CD57 is a terminally sulfated carbohydrate that is selectively expressed on antigen-specific, and functionally competent memory/effector CD8^+ T cells. […] PBMCs were collected at baseline, day 8, 15, and 22 and CD8^+CD57^+CD27^− CD28^− T cells were analyzed for CD57 expression. […]

PBMCs = test: Immunophenotyping by flow cytometry of PBMCs of 4 metastatic cancer patients; format: in vivo, human; conditions: of 4 patients; after 15 days of administration
Description: as §3

[2] = tested on: imiquimod-induced psoriasis; conditions: mice; cited from earlier work
[3] = tested on: delayed type hypersensitivity to methylated BSA; conditions: mice; cited from earlier work
human CD3+ T cells = conditions: 1-10 μM; anti-CD3/anti-CD28 microbead stimulation; cited from earlier work

O=C(/C=C/c1ccc2ccc(C(F)(F)F)cc2n1)c1ccncc1 [PFK-158, (E)-1-(pyridyn-4-yl)-3-(7-(trifluoromethyl)quinolin-2-yl)-prop-2-en-1-one]
concentration reducing IL-17A, fold less than required to inhibit neoplastic and endothelial cells growth (Th17 cells): ~10 fold | patients with de novo stabilization of tumor burden (cancer patients; breast and adenoid cystic carcinoma): 2 patients | patients with partial tumor regressions (cancer patients; ocular melanoma, ovarian cancer and renal cell carcinoma): 3 patients | patients with stabilization of their disease (cancer patients; of 18 cancer patients who completed 2 cycles of 24-470 mg/M^2): 5 patients | reduction in maximum diameters (immune-related response criteria) (cancer patients; person with renal cell carcinoma, 470 mg/M^2): 26% | maximum tolerated dose (cancer patients; phase 1 trial, entered cohort 7, currently at 650 mg/M^2): without reaching a maximum tolerated dose | concentration reducing IL-17A, fold less than required to inhibit neoplastic and endothelial cells growth (γδT17 cells): ~10 fold | increase in circulating cancer-reactive CD8+/CD57+/CD27-/CD28- T cells [1]: 36% | patients with a reduction in frequency of Th17 cells (PBMCs): 4 patients

O=C(C=Cc1cccnc1)c1ccncc1 [3PO, 3-(3-pyridinyl)-1-(4-pyridinyl)-2-propen-1-one]
development of imiquimod-induced psoriasis [2]: suppressed | development of delayed type hypersensitivity to methylated BSA [3]: suppressed | stimulation of F2,6BP synthesis, 2-[1-14C]-deoxy-D-glucose uptake, lactate secretion, TNF-α secretion and T cell aggregation and proliferation (human CD3+ T cells): markedly attenuated

— patent publication US20180147198A1, “COMBINATIONS OF PFKFB3 INHIBITORS AND IMMUNE CHECKPOINT INHIBITORS TO TREAT CANCER” (UNIVERSITY OF LOUISVILLE RESEARCH FOUNDATION, INC., priority 2015, published 2018)
